Earlier results as cited in patent publication US20120275998A1, “BIODEGRADABLE STENT COMPRISING AN ACID SCAVENGING AGENT” (priority 2009, published 2012).

Soluble (solvents) (solvents in which the substance is soluble): Ethanol, dimethyl sulfoxide | Water solubility (water): slightly soluble in water
Structure (SMILES): OCCN(CCO)c1nc(N2CCCCC2)c2nc(N(CCO)CCO)nc(N3CCCCC3)c2n1 [Dipyridamole, 2,6-bis(dithioethanolamino)-4,8-dipiperidinopyrimido(5,4-d)pyrimidine]
